Laboratory results taken from the NIST ThermoML archive (doi:10.1021/je034102r).
± gives the expanded uncertainty stated by the source.

Assay: molar heat capacity at constant pressure
Conditions: 101.33 kPa, Liquid, heat bridge-scanning calorimeter

Measured: molar heat capacity at constant pressure

CCCCn1cc[n+](C)c1.F[P-](F)(F)(F)(F)F [1-butyl-3-methylimidazolium hexafluorophosphate]
436.79 ± 8.8 J/K/mol: 345.82 K | 346.2 K
433.38 ± 8.8 J/K/mol: 340.31 K | 340.44 K | 340.56 K | 340.69 K
440.2 ± 8.8 J/K/mol: 351.86 K | 351.99 K | 352.11 K | 352.24 K
435.08 ± 8.8 J/K/mol: 343.38 K | 343.51 K | 343.63 K
437.07 ± 8.8 J/K/mol: 346.07 K | 346.32 K | 346.45 K | 346.57 K | 346.7 K
440.77 ± 8.8 J/K/mol: 352.74 K | 353.01 K | 353.13 K
433.95 ± 8.8 J/K/mol: 341.32 K | 341.45 K
435.94 ± 8.8 J/K/mol: 344.53 K | 344.78 K | 344.91 K | 345.03 K | 345.16 K
434.23 ± 8.8 J/K/mol: 341.72 K | 341.85 K | 341.97 K | 342.1 K | 342.22 K
438.21 ± 8.8 J/K/mol: 348.35 K | 348.63 K | 348.76 K | 349.01 K
435.65 ± 8.8 J/K/mol: 344.26 K | 344.66 K
436.5 ± 8.8 J/K/mol: 345.42 K | 345.95 K
438.49 ± 8.8 J/K/mol: 348.88 K | 349.13 K | 349.26 K
441.34 ± 8.8 J/K/mol: 353.51 K | 353.64 K
441.05 ± 8.8 J/K/mol: 353.26 K | 353.38 K
440.48 ± 8.8 J/K/mol: 352.36 K | 352.49 K | 352.61 K
436.22 ± 8.8 J/K/mol: 345.29 K | 345.55 K
439.35 ± 8.8 J/K/mol: 350.19 K | 350.32 K | 350.44 K | 350.57 K | 351.21 K
437.64 ± 8.8 J/K/mol: 347.08 K | 347.47 K | 347.6 K | 347.72 K
437.93 ± 8.8 J/K/mol: 347.85 K | 347.97 K | 348.1 K | 348.22 K
433.66 ± 8.8 J/K/mol: 340.82 K | 340.94 K | 341.07 K | 341.19 K
437.36 ± 8.8 J/K/mol: 346.82 K | 346.95 K | 347.35 K
434.51 ± 8.8 J/K/mol: 342.35 K | 342.48 K | 342.6 K | 342.73 K
438.78 ± 8.8 J/K/mol: 349.38 K | 349.51 K | 349.63 K | 349.76 K
439.06 ± 8.8 J/K/mol: 349.88 K
439.63 ± 8.8 J/K/mol: 350.69 K | 350.82 K | 350.94 K | 351.07 K | 351.61 K
434.8 ± 8.8 J/K/mol: 343 K | 343.13 K | 343.25 K
439.91 ± 8.8 J/K/mol: 351.49 K | 351.74 K
435.37 ± 8.8 J/K/mol: 343.76 K | 343.88 K | 344.01 K | 344.13 K
